# ChEMBL document CHEMBL6182948 (J Med Chem, 2025)
# Experiments:
# Cytochrome P450 1A2 = biological target: T1, Cytochrome P450 1A2 (Homo sapiens, UniProt P05177); assay: Inhibition of human recombinant CYP1A2 using 7-ethoxyresorufin as substrate incubated under dark condition for 45 mins in presence of NADPH by EROD fluorescence assay; assay type: ADME
# T1 sequence (P05177 whole entry): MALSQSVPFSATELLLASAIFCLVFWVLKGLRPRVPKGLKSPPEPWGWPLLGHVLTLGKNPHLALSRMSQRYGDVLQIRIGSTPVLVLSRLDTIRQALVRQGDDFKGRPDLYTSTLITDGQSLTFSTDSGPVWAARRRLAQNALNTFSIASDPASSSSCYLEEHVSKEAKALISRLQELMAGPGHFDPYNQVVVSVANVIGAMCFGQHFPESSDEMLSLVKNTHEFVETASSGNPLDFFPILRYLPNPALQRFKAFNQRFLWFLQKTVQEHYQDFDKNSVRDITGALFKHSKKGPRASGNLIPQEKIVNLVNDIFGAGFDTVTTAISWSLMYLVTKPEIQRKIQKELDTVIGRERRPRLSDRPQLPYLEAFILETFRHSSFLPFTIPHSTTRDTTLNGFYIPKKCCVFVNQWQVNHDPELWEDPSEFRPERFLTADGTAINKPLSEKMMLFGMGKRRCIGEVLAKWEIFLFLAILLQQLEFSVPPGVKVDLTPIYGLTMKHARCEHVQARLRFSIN
# Cytochrome P450 1B1 = biological target: T2, Cytochrome P450 1B1 (Homo sapiens, UniProt Q16678); assay: Inhibition of human recombinant CYP1B1 using 7-ethoxyresorufin as substrate incubated under dark condition for 30 mins in presence of NADPH by EROD fluorescence assay; assay type: ADME
# T2 sequence (Q16678 whole entry): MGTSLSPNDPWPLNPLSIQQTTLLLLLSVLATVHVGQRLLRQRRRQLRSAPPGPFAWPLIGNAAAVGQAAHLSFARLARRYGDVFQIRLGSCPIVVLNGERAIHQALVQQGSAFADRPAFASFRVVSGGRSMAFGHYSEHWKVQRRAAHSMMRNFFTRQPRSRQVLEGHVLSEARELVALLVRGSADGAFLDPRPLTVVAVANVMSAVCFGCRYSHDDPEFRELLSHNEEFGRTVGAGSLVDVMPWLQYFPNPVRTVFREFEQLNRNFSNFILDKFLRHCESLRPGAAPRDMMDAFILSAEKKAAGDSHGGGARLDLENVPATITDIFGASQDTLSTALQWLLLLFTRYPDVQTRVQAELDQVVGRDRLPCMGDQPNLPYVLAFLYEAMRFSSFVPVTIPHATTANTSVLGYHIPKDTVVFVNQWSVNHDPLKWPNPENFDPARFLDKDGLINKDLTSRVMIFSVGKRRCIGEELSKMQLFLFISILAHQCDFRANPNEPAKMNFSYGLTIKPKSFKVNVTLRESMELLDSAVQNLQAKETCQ
# Homo sapiens [1] = species: Homo sapiens; assay: Selectivity index, ratio of IC50 for human recombinant CYP1A1 to IC50 for human recombinant CYP1B1 using 7-ethoxyresorufin as substrate
# Homo sapiens [2] = species: Homo sapiens; assay: Selectivity index, ratio of IC50 for human recombinant CYP1A2 to IC50 for human recombinant CYP1B1 using 7-ethoxyresorufin as substrate
# Cytochrome P450 1A1 = biological target: T3, Cytochrome P450 1A1 (Homo sapiens, UniProt P04798); assay: Inhibition of human recombinant CYP1A1 using 7-ethoxyresorufin as substrate incubated under dark condition for 15 mins in presence of NADPH by EROD fluorescence assay; assay type: ADME
# T3 sequence (P04798 whole entry): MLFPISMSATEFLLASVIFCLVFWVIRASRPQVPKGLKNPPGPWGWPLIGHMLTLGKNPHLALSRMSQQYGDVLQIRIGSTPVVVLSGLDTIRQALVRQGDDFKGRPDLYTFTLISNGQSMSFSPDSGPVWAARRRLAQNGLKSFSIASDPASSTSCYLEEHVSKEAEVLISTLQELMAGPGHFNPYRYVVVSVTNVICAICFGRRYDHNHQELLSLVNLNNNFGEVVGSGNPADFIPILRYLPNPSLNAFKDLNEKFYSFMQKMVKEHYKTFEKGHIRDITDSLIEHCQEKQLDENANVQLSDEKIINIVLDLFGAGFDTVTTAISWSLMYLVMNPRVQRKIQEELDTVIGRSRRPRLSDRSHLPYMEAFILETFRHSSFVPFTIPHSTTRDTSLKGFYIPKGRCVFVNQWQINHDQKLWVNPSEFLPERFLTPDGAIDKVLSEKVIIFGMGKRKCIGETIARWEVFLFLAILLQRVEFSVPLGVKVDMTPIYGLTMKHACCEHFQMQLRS
IC50 (Cytochrome P450 1A2) [nM],IC50 (Cytochrome P450 1B1) [nM],Ratio IC50 (Homo sapiens [1]),Ratio IC50 (Homo sapiens [2]),IC50 (Cytochrome P450 1A1) [nM],SMILES
820,0.47,122,1730,58.1,O=C(Nc1ccc(OC(F)F)cc1)c1nc(-c2ccc(F)cc2)cs1
> 10000,1.88,71.8,> 5320,135,Cc1sc(C(=O)Nc2ccc(C(F)(F)F)cc2)nc1-c1cccc(Cl)c1
537,7.95,25.6,67.6,203,O=C(Nc1cc(Cl)cc(Cl)c1)c1nc(-c2ccccc2Cl)cs1
2700,3.04,61.9,889,188,Cc1sc(C(=O)Nc2ccc(OC(F)F)cc2)nc1-c1cccc(F)c1
1440,16.6,21.5,86.5,358,COc1cc(NC(=O)c2nc(-c3ccccc3F)cs2)cc(OC)c1
2330,2.12,79.2,1100,168,Cc1sc(C(=O)Nc2ccc(C(F)(F)F)cc2)nc1-c1cccc(F)c1
> 10000,43.7,53.4,> 229,2330,Cc1cccc(-c2csc(C(=O)Nc3cc(Cl)cc(Cl)c3)n2)c1
14700,10.3,55.1,1430,566,Cc1ccc(-c2csc(C(=O)Nc3cc(Cl)cc(Cl)c3)n2)cc1
608,1.07,323,567,346,O=C(Nc1ccc(C(F)(F)F)cc1)c1nc(-c2ccc(F)cc2)cs1
422,0.29,426,1470,123,O=C(Nc1ccc(C(F)(F)F)cc1)c1nc(-c2cccc(F)c2)cs1
4390,26.4,> 3790,167,> 100000,O=C(Nc1cc(Cl)cc(Cl)c1)c1nc(-c2ccc(Br)cc2)cs1
641,3.97,31.9,162,127,O=C(Nc1ccc(I)cc1)c1nc(-c2ccc(F)cc2)cs1
> 10000,1.71,25.2,> 5850,43.1,Cc1sc(C(=O)Nc2cc(Cl)cc(Cl)c2)nc1-c1cccc(Cl)c1
3650,1.25,55.4,2920,69.2,Cc1sc(C(=O)Nc2cc(Cl)cc(Cl)c2)nc1-c1ccc(F)cc1
601,62,4.3,9.7,266,Cc1ccccc1-c1csc(C(=O)Nc2cc(Cl)cc(Cl)c2)n1
4690,1.04,53.5,4500,55.7,O=C(Nc1ccc(OC(F)F)cc1)c1nc(-c2cccc(Cl)c2)cs1
9540,276,1.7,34.5,456,CC(C)c1ccc(-c2csc(C(=O)Nc3cc(Cl)cc(Cl)c3)n2)cc1
4240,1.42,195,2990,277,O=C(Nc1cc(Cl)cc(Cl)c1)c1nc(-c2ccc(F)cc2)cs1
17100,220,> 454,77.6,> 100000,COc1ccc(-c2csc(C(=O)Nc3cc(Cl)cc(Cl)c3)n2)cc1

IC50 (Cytochrome P450 1A2) [nM],IC50 (Cytochrome P450 1B1) [nM],Ratio IC50 (Homo sapiens [1]),Ratio IC50 (Homo sapiens [2]),IC50 (Cytochrome P450 1A1) [nM],SMILES
5770,2.18,20.2,2640,44.2,NC(=O)c1cccc(-c2csc(C(=O)Nc3ccc(C(F)(F)F)cc3)n2)c1
38400,27.4,> 3650,1400,> 100000,O=C(Nc1cc(Cl)cc(Cl)c1)c1nc(-c2ccc([N+](=O)[O-])cc2)cs1
441,27,22.1,16.3,597,O=C(Nc1ccccc1)c1nc(-c2ccccc2)cs1
> 100000,3.07,41.7,> 32600,128,Cc1sc(C(=O)Nc2ccc(OC(F)F)cc2)nc1-c1cccc(Cl)c1
7240,7.29,65.1,993,474,COc1cc(NC(=O)c2nc(-c3cccc(F)c3)cs2)cc(OC)c1
5730,1.03,104,5590,106,NC(=O)c1ccc(-c2csc(C(=O)Nc3ccc(OC(F)F)cc3)n2)cc1
12700,1950,4.8,6.5,9310,O=C(Nc1cc(Cl)cc(Cl)c1)c1nc(-c2ccc(-c3ccccc3)cc2)cs1
8340,142,6.8,58.7,962,Nc1ccc(-c2csc(C(=O)Nc3cc(Cl)cc(Cl)c3)n2)cc1
248,0.49,142,510,69.2,O=C(Nc1ccc(C(F)(F)F)cc1)c1nc(-c2ccc(Cl)cc2)cs1
> 50000,9.02,7.8,> 5550,70,N#Cc1cccc(-c2csc(C(=O)Nc3ccc(OC(F)F)cc3)n2)c1
> 100000,2.93,7.3,> 34100,21.4,N#Cc1cccc(-c2csc(C(=O)Nc3ccc(C(F)(F)F)cc3)n2)c1
213,0.93,437,230,404,O=C(Nc1ccc(F)cc1F)c1nc(-c2ccc(F)cc2)cs1
> 100000,1070,0.1,> 93.7,121,O=C(Nc1cc(Cl)cc(Cl)c1)c1nc(-c2ccc(F)cc2)c(-c2ccccc2)s1
40300,41.6,18.2,967,758,O=C(Nc1cc(Cl)cc(Cl)c1)c1nc(-c2ccc(O)cc2)cs1
5550,11.5,6.2,481,72,N#Cc1ccc(-c2csc(C(=O)Nc3cc(Cl)cc(Cl)c3)n2)cn1
142,2.23,88.3,63.6,197,O=C(Nc1ccc(Cl)cc1Cl)c1nc(-c2ccccc2F)cs1
4720,2.51,105,1880,264,O=C(Nc1cc(Cl)cc(Cl)c1)c1nc(-c2cccc(F)c2)cs1
330,0.9,65.1,368,58.3,O=C(Nc1ccc(OC(F)F)cc1)c1nc(-c2ccc(Cl)cc2)cs1
